Measurements as given in patent EP4656642A1, “ESTROGEN RECEPTOR PROTEOLYSIS TARGETING CHIMERA COMPOUND AND USE THEREOF” (GAN & LEE PHARM CO., LTD, priority 2023, dated 2024).

What was measured:
Format in all cases: cell-based
MCF-7 cells = assay: Inhibition of cell proliferation of MCF-7 cells (CCK-8, 9 days); conditions: treated for 9 days, CCK-8 kit (Table 6)
Description: Test Example 4 Inhibitory effect of the PROTAC compounds disclosed in the present disclosure on cell proliferation of MCF-7 cells
The complete medium required for MCF-7 cells (source ATCC) was DMEM (gibco, Product number :11995-065) basal medium containing 10% fetal bovine serum. MCF-7 cells were inoculated in 96-well plates at a density of 800 cells/well, and different concentrations of the PROTAC compounds 1-55 provided in the embodiments of the present disclosure and a positive control sample ARV-471 (source: Innochem) were prepared to treat cells, and cells were treated at 37°C in a cell culture incubator with 5% CO2 for 9 days. Cell viability was detected using a CCK -8 kit (Beyotime , Product number: C0040) according to the manufacturer's instruction. […] Table 5 IC50 values for inhibition of the proliferation of MCF-7 cells by the PROTAC compounds of the present disclosure and positive control sample

ERα [1] = biological target: T1, ERα (Homo sapiens, UniProt P03372); assay: Degradation of ERα in MCF-7 cells (immunoblotting, 4 h)
T1 sequence (P03372 1-595): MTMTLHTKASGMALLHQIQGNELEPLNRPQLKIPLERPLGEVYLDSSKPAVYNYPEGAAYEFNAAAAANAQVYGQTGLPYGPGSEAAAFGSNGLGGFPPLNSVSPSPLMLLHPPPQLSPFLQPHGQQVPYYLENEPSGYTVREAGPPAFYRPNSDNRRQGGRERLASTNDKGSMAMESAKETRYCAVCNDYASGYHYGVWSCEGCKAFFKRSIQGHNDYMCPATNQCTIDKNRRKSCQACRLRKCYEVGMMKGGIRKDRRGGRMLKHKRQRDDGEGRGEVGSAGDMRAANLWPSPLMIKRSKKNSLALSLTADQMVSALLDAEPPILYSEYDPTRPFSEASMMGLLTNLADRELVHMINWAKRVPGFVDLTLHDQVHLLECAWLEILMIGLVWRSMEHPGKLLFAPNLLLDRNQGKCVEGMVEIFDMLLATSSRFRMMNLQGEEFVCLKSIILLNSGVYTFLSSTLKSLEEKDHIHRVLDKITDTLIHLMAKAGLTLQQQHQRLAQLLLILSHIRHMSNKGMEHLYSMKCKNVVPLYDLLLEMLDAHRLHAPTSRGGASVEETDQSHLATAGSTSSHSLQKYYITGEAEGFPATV
Procedure: MCF-7 cells were inoculated into 6-well plates at a density of 3×10^5 cells/well and cultured at 37°C, 5% CO2 for 24h. After the cells were attached to the wall, 1µL of the compound solution in dimethyl sulfoxide (final concentration 0.15-1000nM) was added and continued to be cultured in incubator at 37°C with 5% CO2 for 4 h. After 4 h, the culture medium was discarded, and each well was washed once with pre-cooled 1×DPBS, and the cells were lysed with a mixture of 50 µL of RIPA lysis buffer (P0013B, Beyotime) and 1× protease inhibitor (P1005, Beyotime), and then centrifuged at 14,000 g for 30 min at 4°C after resting on ice for 20 min, and the supernatant was carefully collected to detect the protein level of ERα by protein immunoblotting (Immunoblotting).
Protein immunoblotting: The total protein concentration in the collected cell lysate supernatant was determined by BCA Protein Concentration Assay Kit (Enhanced) (P0009, Beyotime). According to the total protein concentration detected by BCA, the protein was adjusted to 1 µg/µL with RIPA lysis buffer and 5× SDS-PAGE protein loading buffer (MB01015, Genscript), and the protein was denatured by water bath at 95°C for 5 min, and then centrifuged after denaturation to enrich the condensate on the wall of the centrifuge tubes as a loading sample. […] At the end of electrophoresis, the proteins in the SDS-PAGE gels were transferred to a PVDF membrane at a constant voltage of 100 V for 60 min. After that, the PVDF membrane corresponding to ERα protein and internal reference protein was cut out and incubated in 1×QµickBlock blocking solution (P0252, Beyotime) for 30 min at room temperature on a shaker. […] Protein profiles were analyzed by Image Studio Lite analysis software for grayscale values. Grayscale correction values were calculated for each sample using the Formula: corrected grayscale value = grayscale value of the target protein /corresponding grayscale value of the internal reference. The degradation rate for the compounds was then calculated by comparing the corrected grayscale values of the compound group to the control group. Table 7 Degradation rate (%) of ERα by the PROTAC compounds of the present disclosure and positive control sample in MCF-7 cells

ERα [2] = biological target: T1, ERα; assay: Degradation of ERα in T-47D cells (immunoblotting, 4 h); parameters: host or cells: T-47D
Procedure: T-47D cells were inoculated into 6-well plates at a density of 3×10^5 cells/well and cultured at 37°C, 5% CO2 for 24 h. After the cells were attached to the wall, 1µL of the compound solution in dimethyl sulfoxide (final concentration 0.15-1000 nM) was added and continued to be cultured in the incubator with 5% CO2 at 37°C for 4 h. After 4 h, the culture medium was discarded, and each well was washed once with pre-cooled 1×DPBS, and the cells were lysed with a mixture of 50 µL of RIPA lysis buffer (P0013B, Beyotime) and 1× protease inhibitor (P1005, Beyotime), and then centrifuged at 14,000 g for 30 min at 4°C after resting on ice for 20 min, and the supernatant was carefully collected to detect the protein level of ERα by protein immunoblotting (Immunoblotting).

With `O=C1CCC(N2Cc3cc4c(cc3C2=O)OC2(CC4)CN(C3CCC(N4CCN(c5ccc([C@@H]6c7ccc(O)cc7CC[C@@H]6c6ccccc6)cc5)CC4)CC3)C2)C(=O)N1` (some centres unmarked) [B16] the IC50 (MCF-7 cells) was 740 nM, the “Degradation rate (%) of ERα in MCF-7 cells” value (ERα [1]; 1nM compound) was -36% and the “Degradation rate (%) of ERα in MCF-7 cells” value (ERα [1]; 10nM compound) was 16%. For the same compound, the “Degradation rate (%) of ERα in T-47D cells” value (ERα [2]; 1nM compound) was 24% and the “Degradation rate (%) of ERα in T-47D cells” value (ERα [2]; 10nM compound) was 60%.

`O=C1CCC(N2Cc3c(ccc4c3OCC43CCN(C(=O)CN4CCC5(CC4)CN(c4ccc([C@@H]6c7ccc(O)cc7CC[C@@H]6c6ccccc6)cc4)C5)CC3)C2=O)C(=O)N1` (some centres unmarked) [B17] was tested, and the IC50 (MCF-7 cells) was 16.6 nM, the “Degradation rate (%) of ERα in MCF-7 cells” value (ERα [1]; 1nM compound) was 37% and the “Degradation rate (%) of ERα in MCF-7 cells” value (ERα [1]; 10nM compound) was 61%. For the same compound, the “Degradation rate (%) of ERα in T-47D cells” value (ERα [2]; 1nM compound) was 52% and the “Degradation rate (%) of ERα in T-47D cells” value (ERα [2]; 10nM compound) was 76%.

`O=C1CCC(N2Cc3c(ccc4c3OCC43CCN(C4CCN(C(=O)C5CCC6(CC5)CCN(c5ccc([C@@H]7c8ccc(O)cc8CC[C@@H]7c7ccccc7)cc5)CC6)CC4)CC3)C2=O)C(=O)N1` (some centres unmarked) [B18] was tested, and the IC50 (MCF-7 cells) was 15.6 nM, the “Degradation rate (%) of ERα in MCF-7 cells” value (ERα [1]; 1nM compound) was 36% and the “Degradation rate (%) of ERα in MCF-7 cells” value (ERα [1]; 10nM compound) was 64%. For the same compound, the “Degradation rate (%) of ERα in T-47D cells” value (ERα [2]; 1nM compound) was 54% and the “Degradation rate (%) of ERα in T-47D cells” value (ERα [2]; 10nM compound) was 79%.

For `O=C1CCC(N2Cc3c(ccc4c3OCC43CCN(CCNC(=O)C4CCC5(CC4)CCN(c4ccc([C@@H]6c7ccc(O)cc7CC[C@@H]6c6ccccc6)cc4)CC5)CC3)C2=O)C(=O)N1` (some centres unmarked) [B19], the IC50 (MCF-7 cells) was 4170 nM, the “Degradation rate (%) of ERα in MCF-7 cells” value (ERα [1]; 1nM compound) was 26% and the “Degradation rate (%) of ERα in MCF-7 cells” value (ERα [1]; 10nM compound) was 72%. The “Degradation rate (%) of ERα in T-47D cells” value (ERα [2]; 1nM compound) was 55% and the “Degradation rate (%) of ERα in T-47D cells” value (ERα [2]; 10nM compound) was 73%.

`O=C1CCC(N2Cc3c(ccc4c3OCC43CCN(C(=O)CN4CC5(C4)CN(c4ccc([C@@H]6c7ccc(O)cc7CC[C@@H]6c6ccccc6)cc4)C5)CC3)C2=O)C(=O)N1` (some centres unmarked) [B20] was tested, and the IC50 (MCF-7 cells) was 1630 nM, the “Degradation rate (%) of ERα in MCF-7 cells” value (ERα [1]; 1nM compound) was 42% and the “Degradation rate (%) of ERα in MCF-7 cells” value (ERα [1]; 10nM compound) was 64%. The “Degradation rate (%) of ERα in T-47D cells” value (ERα [2]; 1nM compound) was 47% and the “Degradation rate (%) of ERα in T-47D cells” value (ERα [2]; 10nM compound) was 73%.

For `O=C1CCC(N2Cc3c(ccc4c3OCC43CCN(CC(=O)N4CC5(C4)CN(c4ccc([C@@H]6c7ccc(O)cc7CC[C@@H]6c6ccccc6)cc4)C5)CC3)C2=O)C(=O)N1` (some centres unmarked) [B21], the IC50 (MCF-7 cells) was 312 nM, the “Degradation rate (%) of ERα in MCF-7 cells” value (ERα [1]; 1nM compound) was 38% and the “Degradation rate (%) of ERα in MCF-7 cells” value (ERα [1]; 10nM compound) was 55%. The “Degradation rate (%) of ERα in T-47D cells” value (ERα [2]; 1nM compound) was 66% and the “Degradation rate (%) of ERα in T-47D cells” value (ERα [2]; 10nM compound) was 83%.

With `O=C1CCC(N2Cc3c(ccc4c3OCC43CCN(CC(=O)N4CCC5(CC4)CN(c4ccc([C@@H]6c7ccc(O)cc7CC[C@@H]6c6ccccc6)cc4)C5)CC3)C2=O)C(=O)N1` (some centres unmarked) [B22] the IC50 (MCF-7 cells) was 11.8 nM, the “Degradation rate (%) of ERα in MCF-7 cells” value (ERα [1]; 1nM compound) was 38% and the “Degradation rate (%) of ERα in MCF-7 cells” value (ERα [1]; 10nM compound) was 70%. The “Degradation rate (%) of ERα in T-47D cells” value (ERα [2]; 1nM compound) was 47% and the “Degradation rate (%) of ERα in T-47D cells” value (ERα [2]; 10nM compound) was 83%.

For `O=C1CCC(N2Cc3c(ccc4c3OCC43CCN(CC(=O)N4CCC5(CCC(C#Cc6ccc([C@@H]7c8ccc(O)cc8CC[C@@H]7c7ccccc7)cc6)CC5)CC4)CC3)C2=O)C(=O)N1` (some centres unmarked) [B29], the IC50 (MCF-7 cells) was 224 nM, the “Degradation rate (%) of ERα in MCF-7 cells” value (ERα [1]; 1nM compound) was 7% and the “Degradation rate (%) of ERα in MCF-7 cells” value (ERα [1]; 10nM compound) was 16%. For the same compound, the “Degradation rate (%) of ERα in T-47D cells” value (ERα [2]; 1nM compound) was -11% and the “Degradation rate (%) of ERα in T-47D cells” value (ERα [2]; 10nM compound) was 14%.

In the case of `O=C1CCC(N2Cc3c(ccc4c3OCC43CCN(CC(=O)N4CC5(CCC(C#Cc6ccc([C@@H]7c8ccc(O)cc8CC[C@@H]7c7ccccc7)cc6)CC5)C4)CC3)C2=O)C(=O)N1` (some centres unmarked) [B30], the IC50 (MCF-7 cells) is reported as 9.92 nM, the “Degradation rate (%) of ERα in MCF-7 cells” value (ERα [1]; 1nM compound) is reported as 19% and the “Degradation rate (%) of ERα in MCF-7 cells” value (ERα [1]; 10nM compound) is reported as 40%. The “Degradation rate (%) of ERα in T-47D cells” value (ERα [2]; 1nM compound) was 15% and the “Degradation rate (%) of ERα in T-47D cells” value (ERα [2]; 10nM compound) was 46%.

With `CN(CC1CCN(c2ccc([C@@H]3c4ccc(O)cc4CC[C@@H]3c3ccccc3)cc2)CC1)[C@H]1CC[C@@H](C(=O)N2CCC3(CC2)COc2c3ccc3c2CN(C2CCC(=O)NC2=O)C3=O)CC1` (some centres unmarked) [B34] the IC50 (MCF-7 cells) was 179 nM, the “Degradation rate (%) of ERα in MCF-7 cells” value (ERα [1]; 1nM compound) was 64% and the “Degradation rate (%) of ERα in MCF-7 cells” value (ERα [1]; 10nM compound) was 71%. For the same compound, the “Degradation rate (%) of ERα in T-47D cells” value (ERα [2]; 1nM compound) was 71% and the “Degradation rate (%) of ERα in T-47D cells” value (ERα [2]; 10nM compound) was 83%.
